Reference: PubChem BioAssay (NCI)
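Briefly, cells in 96-well plates were exposed to five compound concentrations for 48 h, and endpoints were estimated by linear interpolation. GI50 is the concentration that inhibits growth by half. The concentration for full growth arrest is given as TGI.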

How the values were obtained:
Assay in all cases: inhibition of tumour cell growth, NCI panel, 48 h
786-0 renal = test system: 786-0 renal
A498 renal = test system: A498 renal
A549 NSCLC = test system: A549 NSCLC
ACHN renal = test system: ACHN renal
BT-549 breast = test system: BT-549 breast
CAKI-1 renal = test system: CAKI-1 renal
CCRF-CEM leukemia = test system: CCRF-CEM leukemia
COLO 205 colon = test system: COLO 205 colon
DU-145 prostate = test system: DU-145 prostate
EKVX NSCLC = test system: EKVX NSCLC
HCC-2998 colon = test system: HCC-2998 colon
HCT-116 colon = test system: HCT-116 colon
HCT-15 colon = test system: HCT-15 colon
HOP-62 NSCLC = test system: HOP-62 NSCLC
HOP-92 NSCLC = test system: HOP-92 NSCLC
K-562 leukemia = test system: K-562 leukemia
KM12 colon = test system: KM12 colon
LOX IMVI melanoma = test system: LOX IMVI melanoma
M14 melanoma = test system: M14 melanoma
MCF7 breast = test system: MCF7 breast
MDA-MB-231 breast = test system: MDA-MB-231 breast
MDA-MB-435 = test system: MDA-MB-435
NCI-H226 lung = test system: NCI-H226 lung
NCI-H23 lung = test system: NCI-H23 lung
NCI-H460 lung = test system: NCI-H460 lung
NCI/ADR-RES ovarian = test system: NCI/ADR-RES ovarian
OVCAR-3 ovarian = test system: OVCAR-3 ovarian
OVCAR-4 ovarian = test system: OVCAR-4 ovarian
OVCAR-5 ovarian = test system: OVCAR-5 ovarian
PC-3 prostate = test system: PC-3 prostate
RPMI-8226 leukemia = test system: RPMI-8226 leukemia
RXF 393 renal = test system: RXF 393 renal
SF-268 CNS = test system: SF-268 CNS
SF-295 CNS = test system: SF-295 CNS
SK-MEL-2 melanoma = test system: SK-MEL-2 melanoma
SK-MEL-28 melanoma = test system: SK-MEL-28 melanoma
SK-MEL-5 melanoma = test system: SK-MEL-5 melanoma
SK-OV-3 ovarian = test system: SK-OV-3 ovarian
SNB-19 CNS = test system: SNB-19 CNS
SNB-75 CNS = test system: SNB-75 CNS
SW-620 colon = test system: SW-620 colon
T-47D breast = test system: T-47D breast
TK-10 renal = test system: TK-10 renal
U251 CNS = test system: U251 CNS
UACC-257 melanoma = test system: UACC-257 melanoma
UACC-62 melanoma = test system: UACC-62 melanoma
UO-31 renal = test system: UO-31 renal

CN(C)C(=O)C(F)(F)C(c1ccc(Br)cc1)C1C(=O)N(C)C(=O)N(C)C1=O (configuration not stated)
TGI (786-0 renal): > 100 µM | TGI (A498 renal): > 100 µM | TGI (A549 NSCLC): > 100 µM | TGI (ACHN renal): > 100 µM | TGI (BT-549 breast): > 100 µM | TGI (CAKI-1 renal): > 100 µM | TGI (CCRF-CEM leukemia): > 100 µM | TGI (COLO 205 colon): > 100 µM | TGI (DU-145 prostate): > 100 µM | TGI (EKVX NSCLC): > 100 µM | TGI (HCC-2998 colon): > 100 µM | TGI (HCT-116 colon): > 100 µM | TGI (HCT-15 colon): > 100 µM | TGI (HOP-62 NSCLC): > 100 µM | TGI (HOP-92 NSCLC): > 100 µM | TGI (K-562 leukemia): > 100 µM | TGI (KM12 colon): > 100 µM | TGI (LOX IMVI melanoma): > 100 µM | TGI (M14 melanoma): > 100 µM | TGI (MCF7 breast): > 100 µM | TGI (MDA-MB-231 breast): > 100 µM | TGI (MDA-MB-435): > 100 µM | TGI (NCI-H226 lung): > 100 µM | TGI (NCI-H23 lung): > 100 µM | TGI (NCI-H460 lung): > 100 µM | TGI (NCI/ADR-RES ovarian): > 100 µM | TGI (OVCAR-3 ovarian): > 100 µM | TGI (OVCAR-4 ovarian): > 100 µM | TGI (OVCAR-5 ovarian): > 100 µM | TGI (PC-3 prostate): > 100 µM | TGI (RPMI-8226 leukemia): > 100 µM | TGI (RXF 393 renal): > 100 µM | TGI (SF-268 CNS): > 100 µM | TGI (SF-295 CNS): > 100 µM | TGI (SK-MEL-2 melanoma): > 100 µM | TGI (SK-MEL-28 melanoma): > 100 µM | TGI (SK-MEL-5 melanoma): > 100 µM | TGI (SK-OV-3 ovarian): > 100 µM | TGI (SNB-19 CNS): > 100 µM | TGI (SNB-75 CNS): > 100 µM | TGI (SW-620 colon): > 100 µM | TGI (T-47D breast): > 100 µM | TGI (TK-10 renal): > 100 µM | TGI (U251 CNS): > 100 µM | TGI (UACC-257 melanoma): > 100 µM | TGI (UACC-62 melanoma): > 100 µM | TGI (UO-31 renal): > 100 µM

N=C(N)c1ccc(-c2ccc(-c3ccc(Cl)cc3)s2)nc1
GI50 (ACHN renal): 1.65 µM | TGI (ACHN renal): 3 µM | GI50 (DU-145 prostate): 1.7 µM | TGI (DU-145 prostate): 3.07 µM | GI50 (MDA-MB-231 breast): 1.35 µM | TGI (MDA-MB-231 breast): 2.74 µM | GI50 (MDA-MB-435): 1.65 µM | TGI (MDA-MB-435): 3.02 µM | GI50 (OVCAR-4 ovarian): 1.64 µM | TGI (OVCAR-4 ovarian): 3.06 µM | GI50 (OVCAR-5 ovarian): 1.56 µM | TGI (OVCAR-5 ovarian): 2.9 µM | GI50 (SK-MEL-2 melanoma): 2.21 µM | TGI (SK-MEL-2 melanoma): 4.89 µM | GI50 (SK-MEL-28 melanoma): 1.62 µM | TGI (SK-MEL-28 melanoma): 2.97 µM | GI50 (SK-OV-3 ovarian): 3.56 µM | TGI (SK-OV-3 ovarian): 18.1 µM | GI50 (T-47D breast): 1.82 µM | TGI (T-47D breast): 4.49 µM
